{"source": "patent US12331135B2", "about": "“Anti-tyrosinase antibody for inhibiting tyrosinase and use thereof” (HAUUL BIO, priority 2019, dated 2025)", "type_in_all_cases": "cell-based, mouse", "key": {"[1]": {"tested_on": "B16F10 cells", "experiment": "Reactive oxygen species inhibitory effect test", "description": "In order to determine the inhibitory effect of the TAT-α-tyrosinase scFv antibody on reactive oxygen species in cells, the B16F10 cell lines were treated with the TAT-α-tyrosinase scFv antibody, and then the content of intracellular reactive oxygen species was measured using fluorescence staining. B16F10 cells, which are malignant melanoma cells, were cultured in the CO2 incubator at 37° C. Thereafter, the cells were treated with 100 ppm of the TAT-α-tyrosinase scFv antibody and 100 ppm of arbutin as a positive control, and then further cultured under the same culture conditions. After the culture, 0.2 mM hydrogen peroxide was added to each well, and then cultured for 2 hours. Carboxy-H2DCF-DA was added and reaction was carried out at 37° C. for 30 minutes. After washing with PBS, fluorescence was measured with the ELISA Reader system at 475/535 nm by re-addition of PBS, and the values are shown in Table 4."}, "[2]": {"tested_on": "B16F10 cells", "experiment": "Melanin production inhibitory effect test", "conditions": "100 ppm, absorbance 475 nm", "description": "To determine an inhibitory effect of the TAT-α-tyrosinase scFv antibody on melanin production in cells, B16F10 cell lines were treated with the TAT-α-tyrosinase scFv antibody and then the produced intracellular melanin content was measured. B16F10 cells, which are malignant melanoma cells, were cultured at 37° C. in the CO2 incubator. Thereafter, the cells were treated with 10 ppm of the TAT-α-tyrosinase scFv antibody and 100 ppm of arbutin as a positive control, followed by further culture under the same culture conditions. After the culture, each well was washed with PBS and 130 ul of 1 N NaOH solution was added to dissolve it at 60° C. for 1 hour."}, "[3]": {"tested_on": "B16F10 cells", "experiment": "Cytotoxicity test (MTT)", "conditions": "unit assumed", "description": "In order to examine cytotoxicity of the TAT-α-tyrosinase scFv antibody, B16F10 cells, mouse-derived malignant melanoma cells, were cultured in a CO2 incubator at 37° C. After the culture, the cells were treated with the TAT-α-tyrosinase scFv antibody at different concentrations (0.1, 1, 5, 10, 50, 100 ppm), and then further cultured under the same culture conditions. After the culture, MTT{3-(4,5-Dimethylthiazol-2-yl)-2,5-Diphenyltetrazolium Bromide} solution was added and cultured. After that, the culture solution was removed, and DMSO (dimethyl sulfoxide) was added and shaken moderately."}}}
{"smiles": "OC[C@H]1O[C@@H](Oc2ccc(O)cc2)[C@H](O)[C@@H](O)[C@@H]1O", "note": "[Arbutin]", "values": [{"measurement": "ROS (fold of control), Average", "setting": "[1]; 0.2 mM H2O2, 100 ppm", "value": "1.29 fold of control"}, {"measurement": "ROS (fold of control), Average", "setting": "[1]; non treat control (no H2O2), 100 ppm", "value": "0.82 fold of control"}, {"measurement": "Melanin biosynthesis amount (% of control), Average", "setting": "[2]", "value": "66.1 % of control"}, {"measurement": "Cell viability (MTT, absorbance at 570 nm), Average", "setting": "[3]; 0.1 ppm", "value": 97.6, "unit": "%"}, {"measurement": "Cell viability (MTT, absorbance at 570 nm), Average", "setting": "[3]; 1 ppm", "value": 97, "unit": "%"}, {"measurement": "Cell viability (MTT, absorbance at 570 nm), Average", "setting": "[3]; 5 ppm", "value": 83.5, "unit": "%"}, {"measurement": "Cell viability (MTT, absorbance at 570 nm), Average", "setting": "[3]; 10 ppm", "value": 89.3, "unit": "%"}, {"measurement": "Cell viability (MTT, absorbance at 570 nm), Average", "setting": "[3]; 50 ppm", "value": 82.4, "unit": "%"}, {"measurement": "Cell viability (MTT, absorbance at 570 nm), Average", "setting": "[3]; 100 ppm", "value": 57.7, "unit": "%"}]}
